Laboratory results from patent publication US20030162692A1, “Follicle stimulating hormone stimulated genes and uses thereof” (priority 2000, published 2003).

Test system: Y-1 (ATCC Accession No. CCL 79) cells
Assay: GEM (Gene Expression Microarray) expression profile of treated vs control Y1 cells, Incyte mouse cDNA array
Type: cell-based
Conditions: 16 hours; for number of common genes upregulated by FSH, 024 & forskolin: Y1 cells, FSH 10^-9 M, 024 1 uM, Forskolin 1 uM
Protocol: A mouse cDNA array from Incyte, Inc. was used to analyze the expression profile of Y-1 (ATCC Accession No. CCL 79) cells. This transcriptional profile analysis led to the identification of the FSH or FSH Mimetic stimulated genes of the invention.
Y1 cells were incubated with Ham's F-10 Nutrient Mixture Media supplemented with glutamine (1%), G418 geneyticin (80 ug/ml), penicillin-streptomycin (1%), fetal horse serum (15%), and fetal bovine serum (2.5%) and grown to confluency. Confluent cells were then exposed to FSH at 10^-9 M (See Table 1) or FSH Mimetic 024 at 1 uM (see Table 3), Forskolin at 1 uM (See Table 4) and all three agents (i.e., FSH at 10^−9 M, FSH Mimetic 024 at 1 uM and Forskolin at 1 uM—See Table 2) for 16 hours. Total RNA was isolated from control or treated cells with ULTRASPEC™ RNA from Biotech Laboratories, Inc. All media and supplements were obtained from Gibco BRL Life Technologies.
The GEM (Gene Expression Microarray) technology uses the following steps to discover differences in gene expression between two messenger RNA (mRNA) samples. Small samples of cDNA were deposited on a glass surface and bonded to the glass. Subsequently, large portions from one half of the DNA's double strands were removed in order to activate the individual elements of the array, preparing them to react and bind to their uniquely matched DNA counterparts in the cells being tested.
Two mRNA samples were prepared and color labeled, since the GEM technology uses a color coding technique to discover the differences in gene expression between two mRNA samples. […]
The two fluorescent probe samples were simultaneously applied to a single microarray, where they competitively react with the arrayed cDNA molecules. […] The intensity of the fluorescence at each array element is proportional to the expression level of that gene in the sample. […] The ratio of the two fluorescent intensities provided a quantitative measurement of the relative gene expression level in the two cell samples. […]

Row | Compound | number of common genes upregulated by FSH, 024 & forskolin | number of genes regulated in Y1 cells (FSH at 10^-9 M)
1 | C=C[C@@]1(C)CC(=O)[C@]2(O)[C@@]3(C)[C@@H](O)CCC(C)(C)[C@@H]3[C@H](O)[C@H](OC(C)=O)[C@@]2(C)O1 [Forskolin, reference compound] | 64 common genes upregulated by FSH, 024 & forskolin | –
2 | Follicle Stimulating Hormone [FSH] | 64 common genes upregulated by FSH, 024 & forskolin | FSH regulats 189 genes in Y1 cells
